US20210094933A1, “RAPAFUCIN DERIVATIVE COMPOUNDS AND METHODS OF USE THEREOF” (The Johns Hopkins University, priority 2019, published 2021)
Numbered stars: 1 amine (or outer) side, 2 acyl side, 3 side chain; on linkers, the order of the positions; unused ones are H or OH. Square brackets hold non-standard residues; d marks the D form. Side chains are listed from the residue outwards. Peptide text beside a SMILES is read from it. * marks the point of attachment. X1 = COc1ccc(CC[C@@H](N[*:1])c2cccc(OCC(=O)[*:2])c2)cc1OC; X2 = CN(CCC=CC(=O)OCC(C)(C)C(=O)C(=O)[*:2])[*:1]; Pip = O=C(O)[C@@H]1CCCCN1; Morpholide = C1CN(*)CCO1; CO = O=C([*:1])[*:2]; Sar = CNCC(=O)O

Key:
Type in all cases: cell-based
[1] = Nucleoside uptake assay, single concentration (Rel.Uptake), response relative to DMSO; cell line indicated in each table
Procedure: (§1) Nucleoside Uptake Assay (uptake). Nuceloside uptake assays were performed with using 3H-Thymidine as described in Guo et al. (2018) Nat. Chem, 11:254-63. Specific cell lines are indicated in each assay and cultured in complete growth media. Activity is scored according to the IC50 values relative to DMSO control. “Low” indicates an IC50 greater than 600 nM, “Medium” indicates an IC50 between 300 nM and 600 nM “High” indicates an IC50 less than 300 nM. “Rel.Uptake” refers to uptake activity characterization relative to a single concentration assay. “Low” indicates a response greater than 0.6 times the activity relative to DMSO, “Medium” indicates a response between 0.6 and 0.3 times the activity relative to DMSO, “High” indicates a response less than 0.3 times the activity relative to DMSO.

293T = test: Nucleoside uptake assay (3H-Thymidine), IC50 relative to DMSO control; conditions: 293T cells
Procedure: as §1

H929 = test: Cell proliferation assay (Prolif.), IC50 relative to DMSO control; conditions: H929 cells; class relative to DMSO control
Procedure: (§2) Cell Proliferation Assay (Prolif.) Guo et al. (2018) Nat. Chem. 11:254-63. Specific cell lines are indicated in each assay and cultured in complete growth media. Activity is scored according to the IC50 values relative to DMSO control. “Low” indicates an IC50 greater than 600 nM, “Medium” indicates an IC50 between 300 nM and 600 nM “High” indicates an IC50 less than 300 nM. “Rel.Uptake” refers to uptake activity characterization relative to a single concentration assay. “Low” indicates a response greater than 0.6 times the activity relative to DMSO, “Medium” indicates a response between 0.6 and 0.3 times the activity relative to DMSO, “High” indicates a response less than 0.3 times the activity relative to DMSO.

[2] = Cell proliferation assay, single concentration, response relative to DMSO; cell line indicated in each table; conditions: NCI-H929 cells
Procedure: as §2

[3] = 293 T cells, nucleoside uptake at single concentration
[4] = 3H-Thymidine uptake, IC50 class relative to DMSO control
[5] = nucleoside uptake, single concentration, 293T cells

Row | SMILES | Rel. Uptake, 293 T [1, 3] | Uptake, 293T (293T; [4]) | other results
1 | COc1ccc(CC[C@H]2OC(=O)[C@@H]3CCCCN3C(=O)C(=O)C(C)(C)CNC(=O)C=CCCN(C)C(=O)[C@H](CC(C)C)N(C)C(=O)[C@H]3CCCN3C(=O)[C@H](Cc3ccccc3)N(C)C(=O)C(c3ccccc3)NC(=O)CCC(=O)Nc3cccc2c3)cc1OC (stereo partly drawn) [Compound 1555] | high | high | –
2 | COc1ccc(CC[C@H]2OC(=O)[C@@H]3CCCCN3C(=O)C(=O)C(C)(C)COC(=O)C=CCCN(C)C(=O)[C@@H](Cc3ccccc3)NC(=O)CN(C)C(=O)[C@@H](Cc3ccccc3)NC(=O)[C@H](Cc3ccc(OC(=O)N4CCOCC4)cc3)N(C)C(=O)COc3cccc2c3F)cc1OC [Compound 867] | – | – | Prolif. H929 (H929): high; Rel. Prolif., NCI-H929 [2]: low
3 | COc1ccc(CC[C@H]2OC(=O)[C@@H]3CCCCN3C(=O)C(=O)C(C)(C)COC(=O)C=CCCN(C)C(=O)[C@H](CC(C)C)N(C)C(=O)[C@H]3CCCN3C(=O)[C@H](Cc3ccc(CNC(=O)c4ccccc4)cc3)NC(=O)[C@H](c3ccccc3)NC(=O)CCC(=O)Nc3cccc2c3)cc1OC [Compound 1585] | High (“High” indicates a response less than 0.3 times the activity relative to DMSO) | – | IC50 (293T; Table 13): < 300 nM
4 | COc1ccc(CC[C@H]2OC(=O)[C@@H]3CCCCN3C(=O)C(=O)C(C)(C)COC(=O)C=CCCN(C)C(=O)[C@H](CC(C)C)N(C)C(=O)[C@H]3CCCN3C(=O)[C@H](Cc3cccc(NC(C)=O)c3)NC(=O)[C@H](c3ccccc3)NC(=O)CCC(=O)Nc3cccc2c3)cc1OC [Compound 1588] | High (“High” indicates a response less than 0.3 times the activity relative to DMSO) | – | IC50 (293T; Table 13): < 300 nM
5 | COc1ccc(CC[C@H]2NC(=O)[C@@H]3CCCCN3C(=O)C(=O)C(C)(C)COC(=O)C=CCCN(C)C(=O)[C@@H](Cc3ccccc3)NC(=O)CN(C)C(=O)[C@@H](Cc3ccccc3)NC(=O)[C@H](Cc3ccc(OC(=O)N4CCOCC4)cc3)NC(=O)COc3cccc2c3)cc1OC [Compound 877] (cyclo([Pip][X1]Y([CO-Morpholide])[dF][Sar][dF][X2])) | – | – | Prolif. H929 (H929): low; Rel. Prolif., NCI-H929 [2]: low
6 | COc1ccc(CC[C@H]2OC(=O)[C@@H]3CCCCN3C(=O)C(=O)C(C)(C)COC(=O)C=CCCN(C)C(=O)[C@H](CC(C)C)N(C)C(=O)[C@H]3CCCN3C(=O)[C@H](Cc3ccc(OCc4ccccc4)cc3)NC(=O)C(c3ccccc3)NC(=O)CCC(=O)Nc3cccc2c3)cc1OC (stereo partly drawn) [Compound 1082] | – | low | Rel. Uptake, 293 T [1, 5]: low
7 | COc1ccc(CC[C@H]2OC(=O)[C@@H]3CCCCN3C(=O)C(=O)C(C)(C)COC(=O)C=CCCN(C)NC(c3ccccc3)C(=O)N(C)[C@@H](Cc3ccccc3)C(=O)N3CCC[C@@H]3C(=O)N(C)[C@@H](CC(C)C)C(=O)C(=O)CCOc3cccc2c3)cc1OC (stereo partly drawn) [Compound 1556] | low | low | –
8 | COc1ccc(CC[C@H]2OC(=O)[C@@H]3CCCCN3C(=O)C(=O)C(C)(C)COC(=O)C=CCCN(C)C(=O)[C@H](CC(C)C)N(C)C(=O)[C@H]3CCCN3C(=O)[C@H](Cc3ccccc3)N(C)C(=O)[C@H](CC(=O)OC(C)(C)C)NC(=O)CCC(=O)Nc3cccc2c3)cc1OC [Compound 1088] | – | low | Rel. Uptake, 293 T ([1]; 293 T cells, single concentration): low
9 | COc1ccc(CC[C@H]2OC(=O)[C@@H]3CCCCN3C(=O)C(=O)C(C)(C)COC(=O)C=CCCN(C)C(=O)[C@H](CC(C)C)N(C)C(=O)[C@H]3CCCN3C(=O)[C@H](Cc3ccc(NC(=O)Cc4cccnc4)cc3)NC(=O)[C@H](c3ccccc3)NC(=O)CCC(=O)Nc3cccc2c3)cc1OC [Compound 1589] | Low (“Low” indicates a response greater than 0.6 times the activity relative to DMSO) | – | IC50 (293T; Table 13): > 600 nM
10 | COc1ccc(CC[C@H]2OC(=O)[C@@H]3CCCCN3C(=O)C(=O)C(C)(C)COC(=O)C=CCCN(C)C(=O)[C@H](CC(C)C)N(C)C(=O)[C@H]3CCCN3C(=O)[C@H](Cc3ccc(O)cc3)NC(=O)C(c3ccccc3)NC(=O)CCC(=O)Nc3cccc2c3)cc1OC (stereo partly drawn) [Compound 1522] | high | high | –
11 | COc1ccc(CC[C@H]2OC(=O)[C@@H]3CCCCN3C(=O)C(=O)C(C)(C)COC(=O)C=CCCN(C)C(=O)[C@@H](Cc3ccccc3)NC(=O)CN(C)C(=O)[C@@H](Cc3ccccc3)NC(=O)[C@H](Cc3ccc(OC(=O)N4CCOCC4)cc3)N(C)C(=O)CCC(=O)Nc3cccc2c3)cc1OC [Compound 869] | – | – | Prolif. H929 (H929): high; Rel. Prolif., NCI-H929 [2]: low
12 | COc1ccc(CC[C@H]2OC(=O)[C@@H]3CCCCN3C(=O)C(=O)C(C)(C)COC(=O)C=CCCN(C)C(=O)[C@H](CC(C)C)N(C)C(=O)[C@H]3CCCN3C(=O)[C@H](Cc3ccc(CNC(=O)Cc4ccccc4)cc3)NC(=O)[C@H](c3ccccc3)NC(=O)CCC(=O)Nc3cccc2c3)cc1OC [Compound 1586] | Med | – | Uptake, 293T (293T; Table 13): Med
13 | COc1ccc(CC[C@H]2OC(=O)[C@@H]3CCCCN3C(=O)C(=O)C(C)(C)COC(=O)C=CCCN(C)C(=O)[C@H](CC(C)C)N(C)C(=O)[C@H]3CCCN3C(=O)[C@H](Cc3ccc(C(=O)NCCO)cc3)NC(=O)[C@H](c3ccccc3)NC(=O)CCC(=O)Nc3cccc2c3)cc1OC [Compound 1558] | high | – | Uptake, 293T (293T; Table 14): high
14 | COc1ccc(CC[C@H]2OC(=O)[C@@H]3CCCCN3C(=O)C(=O)C(C)(C)COC(=O)C=CCCN(C)C(=O)[C@@H](c3ccccc3)NC(=O)[C@H](Cc3ccc(OP(C)(C)=O)cc3)NC(=O)[C@H]3CCCN3C(=O)[C@H](CC(C)C)N(C)C(=O)COc3cccc2c3)cc1OC [Compound 1520] | low | low | –
15 | COc1ccc(CC[C@H]2OC(=O)[C@@H]3CCCCN3C(=O)C(=O)C(C)(C)COC(=O)C=CCCN(C)C(=O)[C@H](CC(C)C)N(C)C(=O)[C@H]3CCCN3C(=O)[C@H](Cc3ccc(C(=O)Nc4cccnc4)cc3)NC(=O)[C@H](c3ccccc3)NC(=O)CCC(=O)Nc3cccc2c3)cc1OC [Compound 1562] | low | – | Uptake, 293T (293T; Table 14): low
16 | COc1ccc(CC[C@H]2OC(=O)[C@@H]3CCCCN3C(=O)C(=O)C(C)(C)COC(=O)C=CCCN(C)C(=O)[C@H](CC(C)C)N(C)C(=O)[C@H]3CCCN3C(=O)[C@H](Cc3ccc(C(=O)Nc4ccccc4)cc3)NC(=O)[C@H](c3ccccc3)NC(=O)CCC(=O)Nc3cccc2c3)cc1OC [Compound 1559] | medium | – | Uptake, 293T (293T; Table 14): me- dium
17 | COc1ccc(CC[C@H]2OC(=O)[C@@H]3CCCCN3C(=O)C(=O)C(C)(C)COC(=O)C=CCCN(C)C(=O)[C@H](CC(C)C)N(C)C(=O)[C@H]3CCCN3C(=O)[C@H](Cc3ccc(CNC(=O)CN(C)C)cc3)NC(=O)[C@H](c3ccccc3)NC(=O)CCC(=O)Nc3cccc2c3)cc1OC [Compound 1587] | Low (“Low” indicates a response greater than 0.6 times the activity relative to DMSO) | – | IC50 (293T; Table 13): > 600 nM
18 | CCCCCCNC(=O)Cc1ccc(C[C@@H]2NC(=O)[C@H](c3ccccc3)NC(=O)CCC(=O)Nc3cccc(c3)[C@@H](CCc3ccc(OC)c(OC)c3)OC(=O)[C@@H]3CCCCN3C(=O)C(=O)C(C)(C)COC(=O)C=CCCN(C)C(=O)[C@H](CC(C)C)N(C)C(=O)[C@H]3CCCN3C2=O)cc1 [Compound 1591] | Med | – | IC50 (293T; Table 14): > 600 nM
19 | COc1ccc(CC[C@H]2OC(=O)[C@@H]3CCCCN3C(=O)C(=O)C(C)(C)COC(=O)C=CCCN(C)C(=O)[C@H](CC(C)C)N(C)C(=O)[C@H]3CCCN3C(=O)[C@H](CC(=O)OC(C)(C)C)N(C)C(=O)C(c3ccccc3)NC(=O)CCC(=O)Nc3cccc2c3)cc1OC (stereo partly drawn) [Compound 1066] | – | high | Rel. Uptake, 293 T [1, 5]: high
20 | COc1ccc(CC[C@H]2OC(=O)[C@@H]3CCCCN3C(=O)C(=O)C(C)(C)COC(=O)C=CCCN(C)C(=O)[C@H](CC(C)C)N(C)C(=O)[C@H]3CCCN3C(=O)[C@H](Cc3ccc(CC(=O)NCc4ccccc4)cc3)NC(=O)[C@H](c3ccccc3)NC(=O)CCC(=O)Nc3cccc2c3)cc1OC [Compound 1590] | High (“High” indicates a response less than 0.3 times the activity relative to DMSO) | – | IC50 (293T; Table 14): > 600 nM
21 | COc1ccc(CC[C@H]2NC(=O)[C@@H]3CCCCN3C(=O)C(=O)C(C)(C)CNC(=O)C=CCCN(C)C(=O)[C@H](CC(C)C)N(C)C(=O)[C@H]3CCCN3C(=O)[C@H](Cc3ccccc3)N(C)C(=O)C(c3ccccc3)NC(=O)CCC(=O)Nc3cccc2c3)cc1OC (stereo partly drawn) [Compound 1557] | high | high | –
